{"source": "patent US20030175810A1", "about": "“Assay method and system for identification of P2Y receptor agonists and antagonists” (priority 2000, published 2003)", "molecules": {"B1": {"name": "Phospholipase C-β1: phospholipase C-β isoenzyme stimulating GTPase activity of Gαq (protein, UniProt Q9NQ66 1-1216, looked up)", "1-phosphatidylinositol …": "MAGAQPGVHALQLKPVCVSDSLKKGTKFVKWDDDSTIVTPIILRTDPQGFFFYWTDQNKETELLDLSLVKDARCGRHAKAPKDPKLRELLDVGNIGRLEQRMITVVYGPDLVNISHLNLVAFQEEVAKEWTNEVFSLATNLLAQNMSRDAFLEKAYTKLKLQVTPEGRIPLKNIYRLFSADRKRVETALEACSLPSSRNDSIPQEDFTPEVYRVFLNNLCPRPEIDNIFSEFGAKSKPYLTVDQMMDFINLKQRDPRLNEILYPPLKQEQVQVLIEKYEPNNSLARKGQISVDGFMRYLSGEENGVVSPEKLDLNEDMSQPLSHYFINSSHNTYLTAGQLAGNSSVEMYRQVLLSGCRCVELDCWKGRTAEEEPVITHGFTMTTEISFKEVIEAIAECAFKTSPFPILLSFENHVDSPKQQAKMAEYCRLIFGDALLMEPLEKYPLESGVPLPSPMDLMYKILVKNKKKSHKSSEGSGKKKLSEQASNTYSDSSSMFEPSSPGAGEADTESDDDDDDDDCKKSSMDEGTAGSEAMATEEMSNLVNYIQPVKFESFEISKKRNKSFEMSSFVETKGLEQLTKSPVEFVEYNKMQLSRIYPKGTRVDSSNYMPQLFWNAGCQMVALNFQTMDLAMQINMGMYEYNGKSGYRLKPEFMRRPDKHFDPFTEGIVDGIVANTLSVKIISGQFLSDKKVGTYVEVDMFGLPVDTRRKAFKTKTSQGNAVNPVWEEEPIVFKKVVLPTLACLRIAVYEEGGKFIGHRILPVQAIRPGYHYICLRNERNQPLTLPAVFVYIEVKDYVPDTYADVIEALSNPIRYVNLMEQRAKQLAALTLEDEEEVKKEADPGETPSEAPSEARTTPAENGVNHTTTLTPKPPSQALHSQPAPGSVKAPAKTEDLIQSVLTEVEAQTIEELKQQKSFVKLQKKHYKEMKDLVKRHHKKTTDLIKEHTTKYNEIQNDYLRRRAALEKSAKKDSKKKSEPSSPDHGSSTIEQDLAALDAEMTQKLIDLKDKQQQQLLNLRQEQYYSEKYQKREHIKLLIQKLTDVAEECQNNQLKKLKEICEKEKKELKKKMDKKRQEKITEAKSKDKSQMEEEKTEMIRSYIQEVVQYIKRLEEAQSKRQEKLVEKHKEIRQQILDEKPKLQVELEQEYQDKFKRLPLEILEFVQEAMKGKISEDSNHGSAPLSLSSDPGKVNHKTPSSEELGGDIPGKEFDTPL"}}, "key": {"P2Y1 receptor": {"molecular_target": "T1, P2Y1 receptor (Homo sapiens, UniProt P47900)", "T1 construct": "hexahistidine; made in house; host or cells: baculovirus / Sf9 insect cells are named only as a preferred embodiment", "T1 sequence (P47900 whole entry)": "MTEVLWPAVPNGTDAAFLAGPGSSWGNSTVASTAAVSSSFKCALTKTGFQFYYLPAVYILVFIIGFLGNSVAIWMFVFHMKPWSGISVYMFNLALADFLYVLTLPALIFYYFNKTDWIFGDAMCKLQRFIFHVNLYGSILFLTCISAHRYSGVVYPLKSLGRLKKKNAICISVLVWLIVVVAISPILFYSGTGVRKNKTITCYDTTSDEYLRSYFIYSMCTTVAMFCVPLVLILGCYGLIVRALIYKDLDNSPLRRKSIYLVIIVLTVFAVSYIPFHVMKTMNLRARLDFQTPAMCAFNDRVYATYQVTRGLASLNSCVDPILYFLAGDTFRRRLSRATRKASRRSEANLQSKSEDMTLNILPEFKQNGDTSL", "experiment": "steady state GTP hydrolysis by purified P2Y1-R reconstituted with Gα11 and Gβ1γ2 in proteoliposomes", "type": "biochemical", "procedure": "Purified human P2Y1-R, Gα11, and Gβ1y2 were reconstituted in phospholipid vesicles.\nIn a glass tube, the following lipid solutions, which are made by solubilizing the lipids in chloroform, are combined: 11 μl PE (10 mg/ml), 7 μl PS (10 mg/ml), 4 μl cholesteryl hemisuccinate (2 mM). The mixture is dried under a stream of N2 or argon to prevent oxidation. The lipids are then dissolved in a buffer containing deoxycholate at 0.4% and sonicated to ensure complete solubilization. Proteins are added sequentially: 50 pmol of the appropriate G protein α subunit, 150 pmol Gβγ and 15 pmol of P2Y receptor. The mixture is passed over a sizing column to isolate the vesicles from the single components and the detergent. Isolated vesicles can then used for the GTP hydrolysis assays for which they can be diluted depending on their quality.\n(§1) In a steady state embodiment of the present invention, vesicles are combined with agonists, GAP proteins γ-[^32P] labeled GTP, all in an appropriate buffer system. The assay is then incubated at between 20° C. and 30° C. for various times. P2Y receptor-promoted activity is measured as released ^32P, which is separated from [γ-^32P]GTP after the assay is halted by transfer to ice and addition of ice cold 5% slurry or activated charcoal in 20 mM phosphoric acid. See Biddlecome et al., J. Biol. Chem. 271: 7999-8007.\nThe P2Y1 receptor was expressed, purified and reconstituted into vesicles as described herein. GTP hydrolysis was measured by incubation of vesicles with 2 μM [γ^32P]GTP and quantitation of released [^32P]Pi."}, "[1]": {"test_system": "P2Y1 receptor/Gαq/β1γ2 vesicles", "experiment": "promotion of 2MeSADP-stimulated GTPase activity of P2Y1 receptor/Gαq/β1γ2 vesicles", "type": "biochemical", "settings": "1 μM 2MeSADP, FIG. 4 and 5", "procedure": "Purified P2Y1-R was reconstituted with Gαq and Gβ1y2.\nFIG. 5 is a line graph depicting promotion of 2MeSADP-stimulated GTP hydrolysis by phospholipase C-β1. P2Y1-R was reconstituted with Gαq and Gβ1y2.\nas §1\nThe selectivity of the P2Y1 receptor for coupling to various G proteins, and the selectivity of RGS proteins and phospholipase C-β isoenzymes for promoting GTPase activities were studied."}}, "data": [{"molecule": "2-methylthioadenosine 5′-diphosphate [2MeSADP]", "values": [{"measurement": "stimulation of GTPase activity over basal", "setting": "P2Y1 receptor; agonist together with RGS4, FIG. 2A", "value": "up to 100 fold"}, {"measurement": "EC70 concentration of agonist", "setting": "P2Y1 receptor; concentration used to identify antagonists", "value": "approximately 50 nM"}, {"measurement": "hydrolysis of GTP on addition of agonist", "setting": "P2Y1 receptor; in the presence of RGS4, FIG. 1", "value": "marked increase"}]}, {"molecule": "Nc1ncnc2c1ncn2[C@@H]1O[C@H](COP(=O)(O)OP(=O)(O)OP(=O)(O)O)[C@@H](O)[C@H]1O", "note": "[ATP, adenosine 5′-triphosphate]", "values": [{"measurement": "agonist versus antagonist nature at the P2Y1 receptor", "setting": "P2Y1 receptor; in the absence of receptor reserve", "value": "pure antagonist"}]}, {"molecule": "B1", "values": [{"measurement": "promotion of GTPase activity (potency and efficacy in words)", "setting": "[1]", "value": "potent and efficacious stimulator"}]}]}
